Laboratory results from ChEMBL document CHEMBL1828534, “Synthesis and antitumor activity of 1,2,4-triazoles having 1,4-benzodioxan fragment as a novel class of potent methionine aminopeptidase type II inhibitors” (Bioorg Med Chem, 2011).

Assays:
BGC-823 = experiment: cells; details: Homo sapiens, BGC-823, 24 h
Description: Antiproliferative activity against human BGC823 cells after 24 hrs by MTT assay

HeLa = experiment: cells; details: Homo sapiens, 24 h
Description: Antiproliferative activity against human HeLa cells after 24 hrs by MTT assay

HepG2 [1] = experiment: cells; details: Homo sapiens, HepG2, 24 h
Description: Antiproliferative activity against human HepG2 cells after 24 hrs by MTT assay

cells = details: Homo sapiens, SW 1116, 24 h
Description: Antiproliferative activity against human SW1116 cells after 24 hrs by MTT assay

HepG2 [2] = experiment: Induction of apoptosis in human HepG2 cells assessed as early apoptotic cells at 4 uM after 24 hrs using annexin V-FITC and propidium iodide staining by flow cytometry analysis (Rvb =0.02 %); type: functional
HepG2 [3] = experiment: Induction of apoptosis in human HepG2 cells assessed as viable cells at 0.5 uM after 24 hrs using annexin V-FITC and propidium iodide staining by flow cytometry analysis (Rvb =96.26 %); type: functional; details: HepG2, 24 h, read-out: Activity
HepG2 [4] = experiment: Induction of apoptosis in human HepG2 cells assessed as viable cells at 4 uM after 24 hrs using annexin V-FITC and propidium iodide staining by flow cytometry analysis (Rvb =96.26 %); type: functional; details: HepG2, 24 h, read-out: Activity
HepG2 [5] = experiment: Induction of apoptosis in human HepG2 cells assessed as early apoptotic cells at 2 uM after 24 hrs using annexin V-FITC and propidium iodide staining by flow cytometry analysis (Rvb =0.02 %); type: functional
HepG2 [6] = experiment: Induction of apoptosis in human HepG2 cells assessed as viable cells at 2 uM after 24 hrs using annexin V-FITC and propidium iodide staining by flow cytometry analysis (Rvb =96.26 %); type: functional; details: HepG2, 24 h, read-out: Activity
HepG2 [7] = experiment: Induction of apoptosis in human HepG2 cells assessed as late pre-necrotic cells at 4 uM after 24 hrs using annexin V-FITC and propidium iodide staining by flow cytometry analysis (Rvb =0.02 %); type: functional
HepG2 [8] = experiment: Induction of apoptosis in human HepG2 cells assessed as early apoptotic cells at 0.5 uM after 24 hrs using annexin V-FITC and propidium iodide staining by flow cytometry analysis (Rvb =0.02 %); type: functional
HepG2 [9] = experiment: Induction of apoptosis in human HepG2 cells after 24 hrs using annexin V-FITC and propidium iodide staining by flow cytometry analysis; type: functional, cell-based
HepG2 [10] = experiment: Induction of apoptosis in human HepG2 cells assessed as late pre-necrotic cells at 1 uM after 24 hrs using annexin V-FITC and propidium iodide staining by flow cytometry analysis (Rvb =0.02 %); type: functional
HepG2 [11] = experiment: Induction of apoptosis in human HepG2 cells assessed as late pre-necrotic cells at 2 uM after 24 hrs using annexin V-FITC and propidium iodide staining by flow cytometry analysis (Rvb =0.02 %); type: functional
HepG2 [12] = experiment: Induction of apoptosis in human HepG2 cells assessed as late apoptotic/necrotic cells at 2 uM after 24 hrs using annexin V-FITC and propidium iodide staining by flow cytometry analysis (Rvb =0.02 %); type: functional
HepG2 [13] = experiment: Induction of apoptosis in human HepG2 cells assessed as late apoptotic/necrotic cells at 1 uM after 24 hrs using annexin V-FITC and propidium iodide staining by flow cytometry analysis (Rvb =0.02 %); type: functional
HepG2 [14] = experiment: Induction of apoptosis in human HepG2 cells assessed as late pre-necrotic cells at 0.5 uM after 24 hrs using annexin V-FITC and propidium iodide staining by flow cytometry analysis (Rvb =0.02 %); type: functional
HepG2 [15] = experiment: Induction of apoptosis in human HepG2 cells assessed as viable cells at 1 uM after 24 hrs using annexin V-FITC and propidium iodide staining by flow cytometry analysis (Rvb =96.26 %); type: functional; details: HepG2, 24 h, read-out: Activity
HepG2 [16] = experiment: Induction of apoptosis in human HepG2 cells assessed as late apoptotic/necrotic cells at 4 uM after 24 hrs using annexin V-FITC and propidium iodide staining by flow cytometry analysis (Rvb =0.02 %); type: functional
HepG2 [17] = experiment: Induction of apoptosis in human HepG2 cells assessed as late apoptotic/necrotic cells at 0.5 uM after 24 hrs using annexin V-FITC and propidium iodide staining by flow cytometry analysis (Rvb =0.02 %); type: functional
HepG2 [18] = experiment: Induction of apoptosis in human HepG2 cells assessed as early apoptotic cells at 1 uM after 24 hrs using annexin V-FITC and propidium iodide staining by flow cytometry analysis (Rvb =0.02 %); type: functional
[19] = target: Methionine aminopeptidase 2 (Homo sapiens, UniProt P50579); experiment: Inhibition of MetAP2 after 4 hrs
Sequence of Methionine aminopeptidase 2 (P50579 whole entry): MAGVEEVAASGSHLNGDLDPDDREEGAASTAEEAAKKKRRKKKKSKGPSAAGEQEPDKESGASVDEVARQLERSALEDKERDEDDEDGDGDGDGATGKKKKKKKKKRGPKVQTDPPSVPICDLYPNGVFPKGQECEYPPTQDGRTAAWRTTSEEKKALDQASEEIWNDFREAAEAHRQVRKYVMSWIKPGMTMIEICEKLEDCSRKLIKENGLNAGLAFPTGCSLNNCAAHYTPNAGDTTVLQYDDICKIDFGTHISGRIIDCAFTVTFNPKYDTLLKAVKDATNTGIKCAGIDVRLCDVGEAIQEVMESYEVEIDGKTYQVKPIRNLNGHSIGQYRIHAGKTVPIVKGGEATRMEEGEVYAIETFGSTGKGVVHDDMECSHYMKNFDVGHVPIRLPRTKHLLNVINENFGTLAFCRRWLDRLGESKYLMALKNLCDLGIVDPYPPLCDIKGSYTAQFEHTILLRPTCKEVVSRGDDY

IC50 (BGC-823) [µM] | IC50 (HeLa) [µM] | IC50 (HepG2 [1]) [µM] | IC50 (cells) [µM] | Compound | other results
47 | 51.9 | 60 | 38.4 | Sc1nnc(-c2ccc3c(c2)OCCO3)n1-c1ccccc1 | –
65.6 | 44.2 | 5.21 | 26.2 | Brc1cccc(CSc2nnc(-c3ccc4c(c3)OCCO4)n2-c2ccccc2)c1 | –
73.4 | 32.8 | 5.96 | 7.93 | c1ccc(CSc2nnc(-c3ccc4c(c3)OCCO4)n2-c2ccccc2)cc1 | –
79.3 | 79.2 | 3.53 | 8.3 | Clc1ccc(CSc2nnc(-c3ccc4c(c3)OCCO4)n2-c2ccccc2)cc1 | –
> 100 | > 100 | 4.73 | 7.35 | Brc1ccccc1CSc1nnc(-c2ccc3c(c2)OCCO3)n1-c1ccccc1 | –
30.1 | 45.2 | 49.3 | 7.59 | O=[N+]([O-])c1cccc(CSc2nnc(-c3ccc4c(c3)OCCO4)n2-c2ccccc2)c1 | –
84.2 | 35.2 | 2.07 | 9.01 | Fc1cccc(F)c1CSc1nnc(-c2ccc3c(c2)OCCO3)n1-c1ccccc1 | –
> 100 | 18.6 | 1.96 | 7.83 | Fc1ccc(CSc2nnc(-c3ccc4c(c3)OCCO4)n2-c2ccccc2)c(F)c1 | –
> 100 | > 100 | 35.1 | 10.1 | COc1cccc(CSc2nnc(-c3ccc4c(c3)OCCO4)n2-c2ccccc2)c1 | –

Second part, the molecule before the results:

Compound | IC50 (BGC-823) [µM] | IC50 (HeLa) [µM] | IC50 (HepG2 [1]) [µM] | IC50 (cells) [µM] | other results
O=[N+]([O-])c1ccccc1CSc1nnc(-c2ccc3c(c2)OCCO3)n1-c1ccccc1 | 26.4 | 69.8 | 12 | 8.3 | –
Cc1ccccc1CSc1nnc(-c2ccc3c(c2)OCCO3)n1-c1ccccc1 | > 100 | 36 | 20.5 | 12.7 | –
Cc1ccc(CSc2nnc(-c3ccc4c(c3)OCCO4)n2-c2ccccc2)cc1 | 44.3 | 49.7 | 56.8 | 16.2 | –
O=[N+]([O-])c1ccc(CSc2nnc(-c3ccc4c(c3)OCCO4)n2-c2ccccc2)cc1 | 48.6 | 36.2 | 13.8 | 13.8 | –
Clc1ccccc1CSc1nnc(-c2ccc3c(c2)OCCO3)n1-c1ccccc1 | 17.4 | 29 | 0.97 | 9.67 | –
Fc1ccccc1CSc1nnc(-c2ccc3c(c2)OCCO3)n1-c1ccccc1 | 18.6 | 24.2 | 0.81 | 13.6 | Activity (HepG2 [2]): 11%; viability at 0.5 µM (HepG2 [3]): 58.3%; viability at 4 µM (HepG2 [4]): 39.5%; Activity (HepG2 [5]): 4.03%; viability at 2 µM (HepG2 [6]): 50.8%; Activity (HepG2 [7]): 26.23%; Activity (HepG2 [8]): 0.8%; Activity (HepG2 [9]): Dose-dependent effect; Activity (HepG2 [10]): 24.49%; Activity (HepG2 [11]): 27.21%; Activity (HepG2 [12]): 18%; Activity (HepG2 [13]): 13.17%; Activity (HepG2 [14]): 32.8%; viability at 1 µM (HepG2 [15]): 58.9%; Activity (HepG2 [16]): 23.25%; Activity (HepG2 [17]): 8%; Activity (HepG2 [18]): 3.49%
Clc1cccc(CSc2nnc(-c3ccc4c(c3)OCCO4)n2-c2ccccc2)c1 | 51.2 | 15 | 2.39 | 10.6 | –
CO[C@@H]1[C@H](OC(=O)NC(=O)CCl)CC[C@]2(CO2)[C@H]1[C@@]1(C)O[C@@H]1CC=C(C)C [O-CHLOROACETYLCARBAMOYLFUMAGILLOL] | 1.48 | 2.02 | 0.86 | 5.54 | IC50 [19]: 1.05 µM
Fc1ccc(CSc2nnc(-c3ccc4c(c3)OCCO4)n2-c2ccccc2)cc1 | > 100 | 46.9 | 1.02 | 20.8 | –
Brc1ccc(CSc2nnc(-c3ccc4c(c3)OCCO4)n2-c2ccccc2)cc1 | 33.8 | 54.6 | 7.94 | 5.81 | –
